{"source": "patent US4358440A", "about": "“Polypeptide and its production and use” (Takeda Chemical Industries, Ltd., priority 1980, dated 1982)", "key": {"opiate receptor (brain)": {"test_system": "opiate receptor (brain)", "assay": "binding strength with the opiate receptor (brain)", "details": "for binding strength with the opiate receptor (brain) relative to human beta-endorphin: times greater than human beta-endorphin; for binding activity relative to morphine: times greater than morphine", "description": "The above experiment was carried out by the procedure as described in The Journal of Biological Chemistry, Vol. 254, No. 8, p. 2610 (1979)."}, "[1]": {"assay": "analgesic action of the novel peptide", "details": "result in words; no test described"}, "[2]": {"details": "result in words"}, "[3]": {"details": "rats, intracerebral route; cited from earlier work"}, "[4]": {"details": "mice, intracerebral route; cited from earlier work"}}, "note": "Where two headings read alike, the source gives them in different places. Residues, ends and D or L forms follow the SMILES beside them.", "data": [{"molecule": "CC[C@H](C)[C@H](NC(=O)[C@H](Cc1c[nH]cn1)NC(=O)[C@H](CCCCN)NC(=O)[C@H](CC(C)C)NC(=O)[C@H](CC(C)C)NC(=O)[C@@H](NC(=O)[C@@H](NC(=O)[C@H](CC(C)C)NC(=O)[C@@H]1CCCN1C(=O)[C@H](CCCCN)NC(=O)[C@H](Cc1c[nH]cn1)NC(=O)[C@H](CO)NC(=O)[C@H](CCC(N)=O)NC(=O)[C@H](CCCCN)NC(=O)[C@@H](NC(=O)[C@H](Cc1ccc(O)cc1)NC(=O)[C@@H]1CCCN1C(=O)[C@H](CCCCN)NC(=O)[C@H](CCSC)NC(=O)[C@H](Cc1ccccc1)NC(=O)CNC(=O)CNC(=O)[C@@H](N)Cc1ccc(O)cc1)[C@@H](C)O)[C@@H](C)CC)[C@@H](C)O)C(=O)N[C@H](C(=O)N[C@@H](CC(C)C)C(=O)N[C@@H](CCCCN)C(=O)N[C@@H](CC(N)=O)C(=O)N[C@@H](CCC(=O)O)C(=O)N[C@@H](CCC(N)=O)C(=O)O)[C@@H](C)O", "note": "[Compound (I), H-Tyr-Gly-Gly-Phe-Met-Lys-Pro-Tyr-Thr-Lys-Gln-Ser-His-Lys-Pro-Leu-Ile-Thr- Leu-Leu-Lys-His-Ile-Thr-Leu-Lys-Asn-Glu-Gln-OH] (H-YGGFMKPYTKQSHKPLITLLKHITLKNEQ-OH)", "values": [{"measurement": "binding strength with the opiate receptor (brain) relative to human beta-endorphin", "setting": "opiate receptor (brain); with the addition of sodium", "value": "about 3.05 times"}, {"measurement": "binding activity relative to morphine", "setting": "opiate receptor (brain); with the addition of sodium", "value": "about 3.74 times"}, {"measurement": "binding strength with the opiate receptor (brain) relative to human beta-endorphin", "setting": "opiate receptor (brain); without the addition of sodium", "value": "about 2.71 times"}, {"measurement": "binding activity relative to morphine", "setting": "opiate receptor (brain); without the addition of sodium", "value": "about 4.6 times"}, {"measurement": "analgesic action", "setting": "[1]", "value": "excellent analgesic action"}, {"measurement": "toxicity", "setting": "[2]", "value": "very low toxicity"}]}, {"molecule": "CC[C@H](C)[C@H](NC(=O)[C@H](Cc1c[nH]cn1)NC(=O)[C@H](CCCCN)NC(=O)[C@H](CC(C)C)NC(=O)[C@H](CC(C)C)NC(=O)[C@@H](NC(=O)[C@@H](NC(=O)[C@H](CC(C)C)NC(=O)[C@@H]1CCCN1C(=O)[C@H](CCCCN)NC(=O)[C@H](Cc1c[nH]cn1)NC(=O)[C@H](CO)NC(=O)[C@H](CCC(N)=O)NC(=O)[C@H](CCCCN)NC(=O)[C@@H](NC(=O)[C@H](Cc1ccc(O)cc1)NC(=O)[C@@H]1CCCN1C(=O)[C@H](CCCCN)NC(=O)[C@H](CCSC)NC(=O)[C@H](Cc1ccccc1)NC(=O)CNC(=O)CNC(=O)[C@H](Cc1ccc(O)cc1)NC(C)=O)[C@@H](C)O)[C@@H](C)CC)[C@@H](C)O)C(=O)N[C@H](C(=O)N[C@@H](CC(C)C)C(=O)N[C@@H](CCCCN)C(=O)N[C@@H](CC(N)=O)C(=O)N[C@@H](CCC(=O)O)C(=O)N[C@@H](CCC(N)=O)C(=O)O)[C@@H](C)O", "note": "[salmon endorphin, reference compound] (Ac-YGGFMKPYTKQSHKPLITLLKHITLKNEQ-OH)", "values": [{"measurement": "binding to the opiate receptor", "setting": "opiate receptor (brain); result in words", "value": "in no way binds to the opiate receptor"}]}, {"molecule": "beta-endorphin: brain peptide in mammals, a particularly important physiological peptide among the endorphins (YGGFMTSEKSQTPLVTLFKNAIIKNAYKKGE; Beta-endorphin; UniProt P01189 237-267, looked up)", "values": [{"measurement": "analgesic effect", "setting": "[3]", "value": "exerts an analgesic effect"}, {"measurement": "analgesic effect", "setting": "[4]", "value": "exerts an analgesic effect"}]}]}
